Experimental findings from patent US10870647B2, “Imidazopyridine derivative, method for preparing same, and pharmaceutical composition containing same as active ingredient for preventing or treating cancer” (DAEGU-GYEONGBUK MEDICAL INNOVATION FOUNDATION, priority 2016, dated 2020) are described below.

Holding throughout (assay): Kinase selectivity, scanMAX Kinase assay panel (DiscoverX), % control at 1 uM
Common to all, as to type: binding

The target of test [1] is T1, scanMAX Kinase assay panel (Homo sapiens, UniProt Q9NYY3).
T1 construct: purchased DiscoverX
T1 sequence (Q9NYY3 whole entry): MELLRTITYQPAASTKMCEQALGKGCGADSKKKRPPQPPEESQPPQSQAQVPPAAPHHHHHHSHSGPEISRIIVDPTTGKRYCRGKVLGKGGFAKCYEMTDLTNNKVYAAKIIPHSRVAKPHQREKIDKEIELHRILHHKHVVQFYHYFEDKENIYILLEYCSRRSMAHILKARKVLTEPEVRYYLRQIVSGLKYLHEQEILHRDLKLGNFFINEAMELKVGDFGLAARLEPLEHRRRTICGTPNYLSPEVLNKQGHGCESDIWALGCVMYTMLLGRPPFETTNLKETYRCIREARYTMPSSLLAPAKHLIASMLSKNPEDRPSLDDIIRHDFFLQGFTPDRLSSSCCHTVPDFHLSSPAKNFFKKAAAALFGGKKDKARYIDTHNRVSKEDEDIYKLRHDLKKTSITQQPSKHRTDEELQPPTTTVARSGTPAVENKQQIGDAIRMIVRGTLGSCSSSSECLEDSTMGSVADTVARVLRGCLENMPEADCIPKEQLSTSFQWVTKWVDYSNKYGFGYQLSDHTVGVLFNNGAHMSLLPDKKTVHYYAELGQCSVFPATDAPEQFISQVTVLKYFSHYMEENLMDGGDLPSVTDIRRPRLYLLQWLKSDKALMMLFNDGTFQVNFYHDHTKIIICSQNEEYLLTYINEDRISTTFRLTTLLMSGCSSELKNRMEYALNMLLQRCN
As to conditions: PLK2; 1 uM; read-out: Percent Control (%). In outline:
(§1)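 1 uM cpd (DMSO) per kinase; % ctrl = [cpd − pos ctrl]/[neg ctrl − pos ctrl] × 100; hit if <35.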

In test [2] the target is T2, scanMAX Kinase assay panel (Homo sapiens, UniProt Q6P2M8).
T2 construct: purchased DiscoverX
T2 sequence (Q6P2M8 whole entry): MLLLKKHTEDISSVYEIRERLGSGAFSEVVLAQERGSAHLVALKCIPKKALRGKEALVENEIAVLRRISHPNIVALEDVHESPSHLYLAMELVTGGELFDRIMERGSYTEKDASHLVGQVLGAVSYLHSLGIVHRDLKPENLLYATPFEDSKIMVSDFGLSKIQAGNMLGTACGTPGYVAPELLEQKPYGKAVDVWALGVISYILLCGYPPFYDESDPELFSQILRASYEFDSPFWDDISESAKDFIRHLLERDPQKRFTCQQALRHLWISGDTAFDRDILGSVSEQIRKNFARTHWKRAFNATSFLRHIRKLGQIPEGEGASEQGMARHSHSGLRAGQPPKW
To be noted: CAMK1B; 1 uM; read-out: Percent Control (%). In outline:
as §1

For test [3], the target named is T3, scanMAX Kinase assay panel (Homo sapiens, UniProt P24723).
T3 construct: purchased DiscoverX
T3 sequence (P24723 whole entry): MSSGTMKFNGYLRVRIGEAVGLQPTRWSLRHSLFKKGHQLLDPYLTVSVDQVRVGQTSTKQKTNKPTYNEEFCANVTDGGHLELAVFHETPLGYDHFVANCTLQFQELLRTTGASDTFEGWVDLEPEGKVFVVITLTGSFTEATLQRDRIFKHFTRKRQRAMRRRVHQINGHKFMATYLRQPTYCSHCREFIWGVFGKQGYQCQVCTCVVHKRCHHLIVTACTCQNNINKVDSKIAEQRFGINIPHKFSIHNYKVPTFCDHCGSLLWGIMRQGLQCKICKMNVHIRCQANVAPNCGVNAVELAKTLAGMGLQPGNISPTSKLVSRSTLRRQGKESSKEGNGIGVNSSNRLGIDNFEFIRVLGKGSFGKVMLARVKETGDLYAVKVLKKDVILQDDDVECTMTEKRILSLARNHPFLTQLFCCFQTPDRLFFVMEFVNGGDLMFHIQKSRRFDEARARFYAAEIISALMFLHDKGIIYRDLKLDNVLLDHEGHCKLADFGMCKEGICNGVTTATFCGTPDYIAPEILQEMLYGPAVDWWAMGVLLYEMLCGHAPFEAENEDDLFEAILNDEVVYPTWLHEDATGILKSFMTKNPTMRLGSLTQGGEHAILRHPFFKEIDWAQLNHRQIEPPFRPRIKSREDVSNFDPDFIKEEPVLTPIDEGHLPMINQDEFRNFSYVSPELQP
As to conditions: PRKCH; 1 uM; read-out: Percent Control (%). In outline:
as §1

Test [4] addresses T4, scanMAX Kinase assay panel (Homo sapiens, UniProt Q9UM73, C1156Y).
T4 construct: purchased DiscoverX
As to conditions: ALK (C1156Y); 1 uM; read-out: Percent Control (%). In outline: as §1

The target in test [5] is T5, scanMAX Kinase assay panel (Homo sapiens, UniProt Q32MK0).
T5 construct: purchased DiscoverX
T5 sequence (Q32MK0 1-819): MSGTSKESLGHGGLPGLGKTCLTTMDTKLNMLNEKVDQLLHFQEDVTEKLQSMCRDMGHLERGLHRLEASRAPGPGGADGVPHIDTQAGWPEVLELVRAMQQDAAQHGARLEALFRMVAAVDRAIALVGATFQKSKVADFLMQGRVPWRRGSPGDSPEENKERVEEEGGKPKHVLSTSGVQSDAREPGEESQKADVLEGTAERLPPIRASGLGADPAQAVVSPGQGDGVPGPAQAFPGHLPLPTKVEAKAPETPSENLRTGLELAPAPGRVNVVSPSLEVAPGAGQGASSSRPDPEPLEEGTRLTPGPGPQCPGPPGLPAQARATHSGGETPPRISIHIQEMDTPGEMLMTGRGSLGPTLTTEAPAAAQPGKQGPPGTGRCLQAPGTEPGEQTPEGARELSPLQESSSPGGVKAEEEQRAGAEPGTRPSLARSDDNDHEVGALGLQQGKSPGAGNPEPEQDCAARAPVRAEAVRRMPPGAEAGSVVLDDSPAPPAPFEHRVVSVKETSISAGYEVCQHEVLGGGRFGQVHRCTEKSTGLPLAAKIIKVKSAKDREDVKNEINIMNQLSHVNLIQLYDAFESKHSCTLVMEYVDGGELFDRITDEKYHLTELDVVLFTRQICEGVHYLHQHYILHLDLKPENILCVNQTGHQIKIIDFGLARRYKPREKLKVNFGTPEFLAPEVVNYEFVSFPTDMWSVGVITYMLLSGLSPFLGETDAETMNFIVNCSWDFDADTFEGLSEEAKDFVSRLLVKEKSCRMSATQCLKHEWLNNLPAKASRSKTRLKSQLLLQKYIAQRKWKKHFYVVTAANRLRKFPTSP
As to conditions: MLCK; 1 uM; read-out: Percent Control (%). In outline: as §1

The target of test [6] is T6, scanMAX Kinase assay panel (Homo sapiens, UniProt Q08881).
T6 construct: purchased DiscoverX
T6 sequence (Q08881 1-620): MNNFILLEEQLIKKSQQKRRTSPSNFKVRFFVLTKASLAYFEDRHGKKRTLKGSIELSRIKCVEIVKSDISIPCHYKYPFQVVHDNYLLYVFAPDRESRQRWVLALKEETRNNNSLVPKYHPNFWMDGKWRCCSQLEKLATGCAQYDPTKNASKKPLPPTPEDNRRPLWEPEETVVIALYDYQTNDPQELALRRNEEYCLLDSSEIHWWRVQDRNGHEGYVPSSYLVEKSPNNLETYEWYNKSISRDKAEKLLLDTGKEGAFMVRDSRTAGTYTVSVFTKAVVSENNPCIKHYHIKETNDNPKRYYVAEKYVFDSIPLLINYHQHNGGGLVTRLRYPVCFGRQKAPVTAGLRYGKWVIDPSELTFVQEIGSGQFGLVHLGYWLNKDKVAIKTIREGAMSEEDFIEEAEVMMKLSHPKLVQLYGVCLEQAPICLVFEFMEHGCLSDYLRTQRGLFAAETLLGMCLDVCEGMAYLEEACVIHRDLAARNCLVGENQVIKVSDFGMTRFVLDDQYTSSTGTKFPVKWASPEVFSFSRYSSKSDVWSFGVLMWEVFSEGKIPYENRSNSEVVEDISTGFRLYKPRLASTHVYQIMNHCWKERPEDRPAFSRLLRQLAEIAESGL
As to conditions: ITK; 1 uM; read-out: Percent Control (%). In outline:
as §1

T4 sequence (Q9UM73 19-1620 C1156Y): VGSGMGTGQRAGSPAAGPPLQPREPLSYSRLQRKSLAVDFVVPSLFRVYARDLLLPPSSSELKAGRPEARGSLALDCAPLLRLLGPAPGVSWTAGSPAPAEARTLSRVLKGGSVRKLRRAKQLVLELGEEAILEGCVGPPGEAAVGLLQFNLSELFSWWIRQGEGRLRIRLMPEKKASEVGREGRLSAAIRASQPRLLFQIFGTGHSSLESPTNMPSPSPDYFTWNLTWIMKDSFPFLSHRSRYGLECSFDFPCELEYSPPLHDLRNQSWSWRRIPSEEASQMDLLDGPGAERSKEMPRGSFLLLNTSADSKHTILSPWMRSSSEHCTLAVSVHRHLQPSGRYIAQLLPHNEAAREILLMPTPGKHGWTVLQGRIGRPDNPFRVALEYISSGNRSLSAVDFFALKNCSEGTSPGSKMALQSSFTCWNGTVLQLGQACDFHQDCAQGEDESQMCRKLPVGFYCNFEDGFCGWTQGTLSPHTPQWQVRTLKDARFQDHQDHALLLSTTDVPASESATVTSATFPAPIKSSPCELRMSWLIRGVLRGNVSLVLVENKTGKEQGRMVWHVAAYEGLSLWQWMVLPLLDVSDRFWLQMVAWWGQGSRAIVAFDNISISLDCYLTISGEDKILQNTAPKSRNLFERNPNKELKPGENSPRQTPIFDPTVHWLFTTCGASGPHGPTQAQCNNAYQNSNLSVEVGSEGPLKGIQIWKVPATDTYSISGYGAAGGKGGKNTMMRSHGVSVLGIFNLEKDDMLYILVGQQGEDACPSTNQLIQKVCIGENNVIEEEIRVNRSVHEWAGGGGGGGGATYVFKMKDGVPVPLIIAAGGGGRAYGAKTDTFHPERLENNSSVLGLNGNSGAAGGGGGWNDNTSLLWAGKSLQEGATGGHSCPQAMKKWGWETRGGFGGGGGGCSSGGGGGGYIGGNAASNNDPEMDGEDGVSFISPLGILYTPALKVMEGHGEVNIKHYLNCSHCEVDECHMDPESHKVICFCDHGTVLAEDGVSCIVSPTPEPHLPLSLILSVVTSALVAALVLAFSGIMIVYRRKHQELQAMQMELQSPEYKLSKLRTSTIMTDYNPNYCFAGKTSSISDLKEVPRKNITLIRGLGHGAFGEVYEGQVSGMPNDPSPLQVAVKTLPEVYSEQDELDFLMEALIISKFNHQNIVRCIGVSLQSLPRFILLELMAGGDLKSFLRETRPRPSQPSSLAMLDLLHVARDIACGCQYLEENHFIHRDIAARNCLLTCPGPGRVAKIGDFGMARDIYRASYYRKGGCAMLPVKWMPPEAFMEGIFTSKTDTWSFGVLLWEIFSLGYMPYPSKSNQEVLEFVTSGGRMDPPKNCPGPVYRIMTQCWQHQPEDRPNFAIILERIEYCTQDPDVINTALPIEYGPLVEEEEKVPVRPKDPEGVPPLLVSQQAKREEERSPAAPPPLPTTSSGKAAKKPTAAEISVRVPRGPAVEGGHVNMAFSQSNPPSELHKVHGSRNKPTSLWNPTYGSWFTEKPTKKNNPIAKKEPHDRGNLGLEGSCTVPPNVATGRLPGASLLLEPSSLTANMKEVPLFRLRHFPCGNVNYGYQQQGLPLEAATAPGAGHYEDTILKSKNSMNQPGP

As for `Cc1ccc(C(=O)Nc2ccc(CN3CCN(C)CC3)c(C(F)(F)F)c2)cc1C#Cc1cnc2c(Nc3cnn(C)c3)cccn12` [Example 1, 4-methyl-3-((8-((1-methyl-1H-pyrazol-4-yl)amino)imidazo[1,2-a]pyridin-3-yl)ethynyl)-N-(4-((4-methylpiperazin-1-yl)methyl)-3-(trifluoromethyl)phenyl)benzamide], the remaining binding at 1 µM in test [1] stood at 84%; in test [2], 62%; in test [3] it was 100%; in test [4], 76%; in test [5] it was 90%; in test [6] it was 0%.

Consider `Cc1cn(-c2cc(NC(=O)c3ccc(C)c(C#Cc4cnc5c(Nc6cnn(C)c6)cccn45)c3)cc(C(F)(F)F)c2)cn1` [Example 12, 4-methyl-N-(3-(4-methyl-1H-imidazol-1-yl)-5-(trifluoromethyl)phenyl)-3-((8-((1-methyl-1H-pyrazol-4-yl)amino)imidazo[1,2-a]pyridin-3-yl)ethynyl)benzamide], for which the remaining binding at 1 µM was 100% in test [1]; 100% in test [2]; 100% in test [3]; 100% in test [4]; 91% in test [5]; 69% in test [6].

Turning to `Cc1ccc(NC(=O)C2(C(=O)Nc3ccc(F)cc3)CC2)cc1C#Cc1cnc2c(Nc3cnn(C(C)C)c3)cccn12` [Example 78], the remaining binding at 1 µM worked out at 62% in test [1]; 100% in test [2]; 100% in test [3]; 100% in test [4]; 100% in test [5]; 97% in test [6].
